Experimental findings from ChEMBL document CHEMBL3046244, “Efficient synthesis of piperazine-2,6-dione and 4-(1H-indole-2-carbonyl)piperazine-2,6-dione derivatives and their evaluation for anticancer activity” (2013) are described below.

SMILES strings stand for the structures.

Assay type in all cases: functional
One assay concerns T47D. Kind of assay: Growth inhibition of Homo sapiens (human) T47D cells at 10 uM after 48 hr by SRB assay. As to conditions: read-out: GI.
For the next assay, the system named is HepG2. Kind of assay: Growth inhibition of Homo sapiens (human) HepG2 cells at 10 uM after 48 hr by SRB assay. Particulars: HepG2, 48 h, read-out: GI.
Another assay has as its system PA-1. Kind of assay: Growth inhibition of Homo sapiens (human) PA1 cells at 10 uM after 48 hr by SRB assay. Particulars: PA-1, 48 h, read-out: GI. For orientation: Sulforhodamine B stains cellular protein and so reports cell mass.
Another assay concerns NCI-H522. Kind of assay: Growth inhibition of Homo sapiens (human) NCI-H522 cells at 10 uM after 48 hr by SRB assay. Particulars: NCI-H522, 48 h, read-out: GI.
For the next assay, the system named is HCT-15. Kind of assay: Growth inhibition of Homo sapiens (human) HCT15 cells at 10 uM after 48 hr by SRB assay. As to conditions: HCT-15, 48 h, read-out: GI.

For the compound `O=C(c1cc2ccccc2[nH]1)N1CC(=O)N(C2CCCCC2)C(=O)C1`, the inhibition of growth at 10 µM in the assay with T47D came to 7%; in the assay with HepG2, 25%; in the assay with PA-1, 40%; with NCI-H522, 6%; in the assay on HCT-15, 30%.

For `O=C(c1cc2ccccc2[nH]1)N1CC(=O)N(CCCn2ccnc2)C(=O)C1`, the inhibition of growth at 10 µM with T47D was 0%; in the assay with HepG2 it was 34%; in the assay on PA-1, 17%; in the assay with NCI-H522, 0%; in the assay on HCT-15, 7%.

For the compound `O=C(c1cc2ccccc2[nH]1)N1CC(=O)N(Cc2ccccn2)C(=O)C1`, the inhibition of growth at 10 µM in the assay with T47D was determined as 20%; in the assay with HepG2 it was 34%; in the assay with PA-1, 23%; in the assay with NCI-H522, 19%; in the assay with HCT-15, 2%.

`O=C(c1cc2ccccc2[nH]1)N1CC(=O)N(Cc2cccnc2)C(=O)C1`: the inhibition of growth at 10 µM in the assay with T47D turned out to be 12%; in the assay with HepG2 it was 17%; in the assay with PA-1, 13%; with NCI-H522 it was 4%; in the assay with HCT-15, 14%.

Consider `O=C(c1cc2ccccc2[nH]1)N1CC(=O)N(Cc2ccncc2)C(=O)C1`, for which the inhibition of growth at 10 µM worked out at 21% in the assay on T47D; 20% with HepG2; 42% with PA-1; 5% with NCI-H522; 38% with HCT-15.

Turning to `O=C(c1cc2ccccc2[nH]1)N1CC(=O)N(CCN2CCOCC2)C(=O)C1`, the inhibition of growth at 10 µM in the assay with T47D amounted to 16%; with HepG2 it was 3%; in the assay on PA-1 it was 18%; in the assay on NCI-H522, 8%; in the assay with HCT-15, 7%.

As to `O=C(c1cc2ccccc2[nH]1)N1CC(=O)N(Cc2cccs2)C(=O)C1`, the inhibition of growth at 10 µM with T47D was determined as 6%; in the assay on HepG2, 45%; in the assay with PA-1 it was 24%; in the assay on NCI-H522 it was 0%; in the assay on HCT-15, 15%.

On to `O=C(c1cc2ccccc2[nH]1)N1CC(=O)N(CCc2cccs2)C(=O)C1`, for which the inhibition of growth at 10 µM in the assay on T47D was determined as 9%; in the assay on HepG2, 19%; with PA-1 it was 11%; in the assay with NCI-H522 it was 14%; in the assay on HCT-15, 4%.

For the compound `O=C(c1cc2ccccc2[nH]1)N1CC(=O)N(Cc2ccco2)C(=O)C1`, the inhibition of growth at 10 µM was 21% in the assay on T47D; 36% in the assay with HepG2; 23% in the assay with PA-1; 15% in the assay on NCI-H522; 24% with HCT-15.

Regarding `O=C(c1cc2ccccc2[nH]1)N1CC(=O)N(CCN2CCCC2)C(=O)C1`, the inhibition of growth at 10 µM with T47D was found to be 16%; in the assay on HepG2 it was 30%; in the assay with PA-1 it was 29%; in the assay on NCI-H522, 31%; with HCT-15 it was 17%.

For `O=C1CCCN1CCCN1C(=O)CN(C(=O)c2cc3ccccc3[nH]2)CC1=O`, the inhibition of growth at 10 µM in the assay with T47D worked out at 14%; with HepG2 it was 11%; with PA-1, 8%; with NCI-H522, 8%; in the assay on HCT-15 it was 27%.

For the compound `O=C1CNCC(=O)N1C1CCCCC1`, the inhibition of growth at 10 µM worked out at 15% with T47D; 38% in the assay on HepG2; 24% with PA-1; 11% in the assay with NCI-H522; 7% in the assay with HCT-15.

Regarding `O=C1CNCC(=O)N1CCCn1ccnc1`, the inhibition of growth at 10 µM amounted to 8% in the assay with T47D; 13% with HepG2; 23% in the assay on PA-1; 8% in the assay on NCI-H522; 32% in the assay on HCT-15.

`O=C1CNCC(=O)N1Cc1ccccn1`: the inhibition of growth at 10 µM with T47D worked out at 16%; in the assay with HepG2, 31%; with PA-1, 17%; in the assay with NCI-H522 it was 8%; in the assay on HCT-15 it was 1%.

With `O=C1CNCC(=O)N1Cc1cccnc1`, the inhibition of growth at 10 µM in the assay on T47D was 8%; in the assay with HepG2, 21%; with PA-1 it was 20%; with NCI-H522, 4%; in the assay on HCT-15, 20%.

Turning to `O=C1CNCC(=O)N1Cc1ccncc1`, the inhibition of growth at 10 µM in the assay with T47D turned out to be 4%; in the assay on HepG2, 25%; with PA-1 it was 27%; in the assay on NCI-H522, 8%; with HCT-15 it was 33%.

With `O=C1CNCC(=O)N1CCN1CCOCC1`, the inhibition of growth at 10 µM in the assay on T47D amounted to 1%; with HepG2, 38%; in the assay with PA-1, 37%; in the assay with NCI-H522, 9%; in the assay on HCT-15, 4%.

For the compound `O=C1CNCC(=O)N1Cc1cccs1`, the inhibition of growth at 10 µM with T47D is 8%; with HepG2 it was 29%; with PA-1, 18%; with NCI-H522, 15%; with HCT-15, 4%.

`O=C1CNCC(=O)N1CCc1cccs1`: the inhibition of growth at 10 µM in the assay on T47D stood at 16%; in the assay on HepG2, 24%; in the assay with PA-1, 15%; with NCI-H522, 21%; in the assay with HCT-15, 25%.

As to `O=C1CNCC(=O)N1Cc1ccco1`, the inhibition of growth at 10 µM with T47D is 4%; in the assay with HepG2, 21%; with PA-1, 26%; in the assay on NCI-H522, 7%; in the assay on HCT-15, 30%.

Regarding `O=C1CNCC(=O)N1CCN1CCCC1`, the inhibition of growth at 10 µM with T47D was 1%; in the assay on HepG2 it was 18%; in the assay with PA-1 it was 26%; with NCI-H522 it was 0%; in the assay with HCT-15 it was 49%.

Take `O=C1CCCN1CCCN1C(=O)CNCC1=O`: the inhibition of growth at 10 µM with T47D is 21%; in the assay on HepG2 it was 40%; in the assay with PA-1, 25%; with NCI-H522, 21%; in the assay with HCT-15, 19%.

`C[C@@H]1C[C@@H]([C@H](O)CC2CC(=O)NC(=O)C2)C(=O)[C@@H](C)C1` [CYCLOHEXIMIDE]: the inhibition of growth at 10 µM came to 11% in the assay with T47D; 26% with HepG2; 34% in the assay with PA-1; 15% in the assay with NCI-H522; 16% in the assay with HCT-15.

With `O=P1(N(CCCl)CCCl)NCCCO1` (stereo not given) [CYCLOPHOSPHAMIDE ANHYDROUS], the inhibition of growth at 10 µM with T47D is 26%; with HepG2 it was 18%; in the assay on PA-1, 12%; with NCI-H522, 11%; with HCT-15 it was 12%.

On to `O=c1[nH]cc(F)c(=O)[nH]1` [FLUOROURACIL], for which the inhibition of growth at 10 µM in the assay with T47D is 15%; in the assay on HepG2, 18%; in the assay on PA-1 it was 22%; in the assay on NCI-H522, 24%; in the assay with HCT-15 it was 19%.
